For data set [1], the target named is T1, NURR-1/RXRα (Homo sapiens, UniProt P19793).
T1 construct: expressed in transfected cells; host or cells: Cos-7 cells
Kind of data set: Transactivation test, NURR-1-Gal4/RXRα, luciferase reporter in Cos-7 cells. The data set is classed as cell-based. To be noted: for Emax: COS-7, induction level relative to reference XCT0135908 at 2×10^−5 M (=100%), read-out: hNurr1_RXRaFL Emax (%); for EC50: Cos-7 cells, NURR-1-Gal4/RXRα, luciferase reporter, read-out: hNurr1_RXRaFL EC50; for hNurr1_RXRaFL Emax (%): induction level relative to reference XCT0135908 at 2×10^−5 M (=100%). In general terms: A reporter such as luciferase makes a cellular process visible.

For data set [2], the target named is T2, NURR-1/RXRγ (Homo sapiens, UniProt P48443).
T2 construct: expressed in transfected cells; host or cells: Cos-7 cells
T2 sequence (P48443 whole entry): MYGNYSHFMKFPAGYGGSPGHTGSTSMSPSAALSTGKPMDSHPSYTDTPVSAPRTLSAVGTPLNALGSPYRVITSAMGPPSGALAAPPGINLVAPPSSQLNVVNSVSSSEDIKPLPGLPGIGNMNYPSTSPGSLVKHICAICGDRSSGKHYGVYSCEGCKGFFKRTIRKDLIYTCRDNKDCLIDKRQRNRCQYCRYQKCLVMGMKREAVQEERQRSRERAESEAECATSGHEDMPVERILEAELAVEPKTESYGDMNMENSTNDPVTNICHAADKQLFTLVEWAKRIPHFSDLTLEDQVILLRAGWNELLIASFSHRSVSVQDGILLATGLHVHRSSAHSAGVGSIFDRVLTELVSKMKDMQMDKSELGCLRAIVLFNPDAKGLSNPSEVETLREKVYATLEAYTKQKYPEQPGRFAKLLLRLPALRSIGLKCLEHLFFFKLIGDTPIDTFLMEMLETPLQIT
T2 sequence (P43354 whole entry partner): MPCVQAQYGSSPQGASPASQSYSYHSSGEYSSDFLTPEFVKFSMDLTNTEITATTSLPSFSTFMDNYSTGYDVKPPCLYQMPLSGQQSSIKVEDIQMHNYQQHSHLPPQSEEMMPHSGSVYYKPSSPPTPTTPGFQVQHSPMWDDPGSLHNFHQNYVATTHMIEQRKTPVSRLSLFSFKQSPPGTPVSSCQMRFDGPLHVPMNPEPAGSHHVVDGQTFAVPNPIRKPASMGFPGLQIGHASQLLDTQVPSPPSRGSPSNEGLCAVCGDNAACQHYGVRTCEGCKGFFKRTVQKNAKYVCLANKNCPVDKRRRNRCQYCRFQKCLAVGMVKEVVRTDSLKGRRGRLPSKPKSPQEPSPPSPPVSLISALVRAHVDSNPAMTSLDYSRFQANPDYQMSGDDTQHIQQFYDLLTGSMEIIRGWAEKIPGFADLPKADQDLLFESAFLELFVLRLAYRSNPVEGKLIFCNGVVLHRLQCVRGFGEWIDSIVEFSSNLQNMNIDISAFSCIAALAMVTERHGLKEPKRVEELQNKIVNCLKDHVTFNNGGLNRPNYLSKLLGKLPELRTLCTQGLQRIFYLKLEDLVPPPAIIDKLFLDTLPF
T2 sequence (P04386 1-147 partner limits assumed): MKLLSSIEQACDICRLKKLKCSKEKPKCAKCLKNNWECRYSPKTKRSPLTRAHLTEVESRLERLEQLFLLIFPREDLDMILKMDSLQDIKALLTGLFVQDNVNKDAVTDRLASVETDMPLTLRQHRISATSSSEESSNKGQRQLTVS
The data set is described as follows: Transactivation test, NURR-1-Gal4/RXRγ, luciferase reporter in Cos-7 cells. The data set is classed as cell-based. Conditions: for Emax: COS-7, induction level relative to reference XCT0135908 at 2×10^−5 M (=100%), read-out: hNurr1_RXRgFL Emax (%); for EC50: Cos-7 cells, NURR-1-Gal4/RXRγ, luciferase reporter, read-out: hNurr1_RXRgFL EC50; for hNurr1_RXRgFL Emax (%): induction level relative to reference XCT0135908 at 2×10^−5 M (=100%).

T1 sequence (P19793 whole entry): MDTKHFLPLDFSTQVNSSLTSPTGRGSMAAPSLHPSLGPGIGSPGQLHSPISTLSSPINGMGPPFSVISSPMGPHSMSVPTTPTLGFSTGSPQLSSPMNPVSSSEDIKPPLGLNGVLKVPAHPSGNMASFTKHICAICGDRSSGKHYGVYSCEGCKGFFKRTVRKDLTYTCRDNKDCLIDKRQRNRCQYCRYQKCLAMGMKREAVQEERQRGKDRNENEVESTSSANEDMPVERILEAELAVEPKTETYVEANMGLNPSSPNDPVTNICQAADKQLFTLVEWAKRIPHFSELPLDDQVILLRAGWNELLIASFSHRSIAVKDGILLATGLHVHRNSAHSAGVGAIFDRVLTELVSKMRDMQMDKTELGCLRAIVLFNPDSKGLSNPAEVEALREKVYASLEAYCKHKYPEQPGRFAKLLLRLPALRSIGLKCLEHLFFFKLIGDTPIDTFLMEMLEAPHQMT
T1 sequence (P43354 whole entry partner): as the sequence (P43354 whole entry partner) above
T1 sequence (P04386 1-147 partner limits assumed): as the sequence (P04386 1-147 partner limits assumed) above

In the case of `CC1COc2cc(C(F)(F)F)ccc2N1c1cccc(N2CC(C(=O)O)C2)c1` (single isomer, unassigned; isomer 1) [Example 124-1, 1-[3-[3-methyl-7-(trifluoromethyl)-2,3-dihydro-1,4-benzoxazin-4-yl]phenyl]azetidine-3-carboxylic acid, isomer 1], the melting point (usually the temperature of the solid-liquid transition) was found to be 61 °C. In data set [1], the Emax – broadly, the maximal effect, on the per cent scale that the assay sets – was 107% and the EC50 (in general, the concentration that produces a half-maximal response) is 0.118 µM. In data set [2], the Emax was found to be 101% and the EC50 stood at 0.211 µM.
Taken in the same sequence, the figures for `CC1(C)CCC2C(C1)c1cc(C(F)(F)F)ccc1N2c1cccc(N2CC(C(=O)O)C2)c1` (single isomer, unassigned; isomer 1) [Example 145-1, 1-[3-[3,3-dimethyl-6-(trifluoromethyl)-2,4,4a,9a-tetrahydro-1H-carbazol-9-yl]phenyl]azetidine-3-carboxylic acid (isomer 1)] were 84 to 91 °C, 82%, 0.037 µM, 90% and 0.103 µM.
In turn, `CC1(C)CCC2C(C1)c1cc(C(F)(F)F)ccc1N2c1cccc(N2CC(C(=O)O)C2)c1` (single isomer, unassigned; isomer 2) [Example 145-2, 1-[3-[3,3-dimethyl-6-(trifluoromethyl)-2,4,4a,9a-teterahydro-1H-carbazol-9-yl]phenyl]azetidine-3-carboxylic acid (isomer 2)] gave a melting point of 82 to 94 °C. Further, in data set [1], the EC50 turned out to be 0.002 µM and the “hNurr1_RXRaFL Emax (%)” value is given as 86%. For the same compound, in data set [2], the EC50 was less than 0.001 µM and the “hNurr1_RXRgFL Emax (%)” value worked out at 99%.
For `CC(C)CC1Oc2cc(C(F)(F)F)ccc2N(c2cccc(N3CC(C(=O)O)C3)c2)C1=O` (single isomer, unassigned; isomer 2) [Example 246-2, 1-[3-[2-isobutyl-3-oxo-7-(trofluormethyl)-1,4-benzoxazin-4-yl]phenyl]azetidine-3-carboxylic acid, isomer 2] the same measures were 57 to 70 °C, 0.073 µM, 58%, 0.126 µM and 46%.
`O=C(O)C1CN(c2cccc(-c3cc(C(F)(F)F)cc4c3NCC3(CCC3)O4)c2)C1` [Example 62, 1-[3-[7-(trifluoromethyl)spiro[3,4-dihydro-1,4-benzoxazine-2,1′-cyclobutane]-5-yl]phenyl]azetidine-3-carboxylic acid] gave a melting point of 80 to 85 °C. Moreover, in data set [1], the Emax was found to be 97% and the EC50 came to 0.004 µM. In addition, in data set [2], the Emax is 107% and the EC50 came to 0.007 µM.
For `CCC1CNc2c(cc(C(F)(F)F)cc2-c2cccc(N3CC(C(=O)O)C3)c2)O1` (stereo not shown) [Example 66, 1-[3-[2-ethyl-7-(trifluoromethyl)-3,4-dihydro-2H-1,4-benzoxazin-5-yl]phenyl]azetidine-3-carboxylic acid], the melting point lay within 115 to 121 °C. Further, in data set [1], the Emax was found to be 98% and the EC50 was found to be 0.008 µM. In addition, in data set [2], the Emax stood at 95% and the EC50 was 0.025 µM.
For `Cc1ccc(N2CC(C(=O)O)C2)cc1-c1cccc(C(C)C)c1` [Example 69, 1-[3-(3-isopripylphenyl)-4-methylphenyl]azetidine-3-carboxylic acid] the same measures were 71 to 76 °C, 63%, 0.146 µM, 57% and 0.142 µM.
Taken in the same sequence, the figures for `CC(C)c1cc2c(c(-c3cccc(N4CC(C(=O)O)C4)c3)c1)C(=O)CC(C)(C)O2` [Example 71, 1-[3-(7-isopropyl-2,2-dimethyl-4-oxochroman-5-yl)phenyl]azetidine-3-carboxylic acid] were 70 to 88 °C, 96%, 0.326 µM, 101% and 0.435 µM.
Taken in the same sequence, the figures for `CCc1noc2cc(C(C)C)cc(-c3cccc(N4CC(C(=O)O)C4)c3)c12` [Example 72, 1-[3-(3-ethyl-6-isopropy;-1,2-benzoxazol-4-yl)phenyl]azetidine-3-carboxylic acid] were 63 to 69 °C, 97%, 0.007 µM, 112% and 0.04 µM.
`O=C(O)C1CN(c2cccc(-c3cc(C(F)(F)F)nc4cc(Cl)ccc34)c2)C1` [Example 82, 1-[3-[7-chloro-2-(trifluoromethyl)-4-quinolyl]phenyl]azetidine-3-carboxylic acid]: the melting point is 98 to 101 °C. Besides, in data set [1], the Emax amounted to 110% and the EC50 worked out at 0.031 µM. For the same compound, in data set [2], the Emax came to 99% and the EC50 was found to be 0.072 µM.
For `Cc1cc2c(cc1-c1cccc(N3CC(C(=O)O)C3)c1)C(C)(C)CCC2(C)C` [Example 85, 1-[3-(1,1,4,4,7-pentamethyltetralin-6-yl)phenyl]azetidine-3-carboxylic acid] the same measures were 130 to 141 °C, 112%, 0.019 µM, 116% and 0.049 µM.
Compound `CCc1cc2c(cc1-c1cccc(N3CC(C(=O)O)C3)c1)C(C)(C)CCC2(C)C` [Example 86, 1-[3-(7-ethyl-1,1,4,4,-tetramethyltetralin-6-yl)phenyl]azetidine-3-carboxylic acid] yielded a melting point of 78 to 88 °C. Also, in data set [1], the Emax worked out at 107% and the EC50 came to 0.006 µM. In data set [2], the Emax was 97% and the EC50 was 0.016 µM.
`Cc1cc(N2CC(C(=O)O)C2)cc(N2CC(C)(C)Oc3cc(C(F)(F)F)ccc32)c1` [Example 116, 1-[3-[2,2-dimethyl-7-(trifluoromethyl)-3H-1,4-benzoxazin-4-yl]-5-methylphenyl]azetidine-3-carboxylic acid] had a melting point of 93 to 98 °C. For the same compound, in data set [1], the Emax is 111% and the EC50 turned out to be 0.002 µM. Moreover, in data set [2], the Emax worked out at 115% and the EC50 was found to be 0.001 µM.
For `CC1(C)CN(c2cccc(N3CC(C(=O)O)C3)c2)c2ccccc2O1` [Example 119, 1-[3-(2,2-dimethyl-3H-1,4-benzoxazin-4-yl)phenyl]azetidine-3-carboxylic acid] the same measures were 59 to 64 °C, 101%, 0.238 µM, 94% and 0.512 µM.
In turn, `O=C([O-])C1CN(c2cccc(C3=CC4(CCC4)Oc4cc(C(F)(F)F)ccc43)c2)C1.[Na+]` [Example 268, sodium 1-[3-[7-(trifluoromethyl)spiro[chromene-2,1′-cyclobutane]-4-yl]phenyl]azetidine-3-carboxylate] showed a melting point of 177 to 191 °C. Also, in data set [1], the Emax was 107% and the EC50 was roughly 0.001 µM.
Taken in the same sequence, the figures for `CC1(C)N=C(c2cccc(N3CC(C(=O)[O-])C3)c2)c2ccc(C(F)(F)F)cc2O1.[Na+]` [Example 271, sodium 1-[3-[2,2-dimethyl-7-(trifluoromethyl)-1,3-benzoxazin-4-yl]phenyl]azetidine-3-carboxylate] were 141 to 146 °C, 114% and 0.026 µM.

Values taken from patent publication US20170066717A1, “NEW PHENYLAZETIDINECARBOXYLATE OR -CARBOXAMIDE COMPOUNDS” (INVENTIVA, priority 2014, published 2017).
